Measured values from patent US8476303B2, “N-aminopyrrolylmethyltetrahydropyridines as anti-cancer agents” (Florida A&M University Board of Trustees, priority 2011, dated 2013).

What was measured:
Assay type in all cases: cell-based
[1] = tested on: MCF-7 estrogen receptor-positive breast cancer cells; assay: CELLTITER-GLO luminescent cell viability assay, MCF-7; details: MCF-7 cells, 72 h at 37° C.
Procedure: (§1) The derivatives were examined for their cytotoxic effects on MCF-7 estrogen receptor-positive breast cancer cells, MDA-MB-231 estrogen receptor-negative breast cancer cell line, and Ishikawa cells, using the CELLTITER-GLO (CTG)® luminescent cell viability assay. All the compounds are tested in the three cell lines. Different concentration of compounds, ranging from about 0.01 nM to about 100,000 nM were delivered to 5×10^3 cells per well, which were then incubated for three days at 37° C., followed by the CTG assay.
(§2) Compounds Redda-GM-2-50, Redda-GM-2-55, and Redda-GM-2-58 were tested for their cytotoxic effects on MCF-7 estrogen receptor-positive breast cancer cells, MDA-MB-231 estrogen receptor-negative breast cancer cell line, and Ishikawa cells, using the CELLTITER-GLO® luminescent cell viability assay (Promega, Madison, Wis.) following the manufacturer's instruction.
(§3) CELLTITER-GLO® is a homogeneous method based on the quantification of ATP, which is an indicator of metabolically active cells. In this assay, the number of viable cells in culture is determined based on the quantification of ATP present, which signals the presence of metabolically active cells. Damaged cells are not detected as the ATP leaked from these cells is quickly consumed by ATPases that are also released upon damage). The amount of ATP is determined using a system based on luciferase and D-luciferin resulting in light generation.
(§4) The cell lines were plated in 13, 96 well plates at a density of 5000 cells/well in total volumes of 50 μL in phenol-red free medium and incubated for overnight. […]
(§5) Drug-exposed cells were incubated or 72 h at 37° C. in a 5% CO2 incubator, after which the plates were removed for CELLTITER-GLO® assay and equilibrated at room temperature for 30 min. […] Luminescence results were read on TriLux Luminometer. […] Data were expressed as percentage of untreated control (i.e. treatment value-blank/vehicle value blank), mean±SE for three replications.

[2] = tested on: MDA-MB-231 estrogen receptor-negative breast cancer cell line; assay: CELLTITER-GLO luminescent cell viability assay, MDA-MB-231; details: MDA-MB-231 cells, 72 h at 37° C.
Procedure: as §1, §2, §3, §4, §5

Ishikawa cells = assay: CELLTITER-GLO luminescent cell viability assay, Ishikawa; details: 72 h at 37° C.
Procedure: as §1, §2, §3, §4, §5

Substance | IC50 [1] [µM] | IC50 [2] [µM] | IC50 (Ishikawa cells) [µM]
3-((1H-pyrrol-1-yl)methyl)-1-(4-methoxyphenylsulfonamido)pyridinium Ylide [Redda-GM-2-58] | 49 | 53 | 28
3-((1H-pyrrol-1-yl)methyl)-1-(4-methylphenylsulfonamido)pyridinium Ylide [Redda-GM-2-55] | 31.8 | 83.6 | 78.5
3-((1H-pyrrol-1-yl)methyl)-1-(phenylsulfonimido)pyridinium Ylide [Redda-GM-2-50] | 47 | 44 | 28
